From paper PMC4503722, “Novel Phenotypic Outcomes Identified for a Public Collection of Approved Drugs from a Publicly Accessible Panel of Assays” (PLoS ONE, 2015)
Read-outs that look alike come from different tables or passages of the source.

Columns and labels:
[1] = system: endothelial tube formation in co-cultures of ECFCs and ADSCs treated with VEGF; assay: cells; format: cell-based, human
[2] = system: nuclear β-catenin in C2C12 cells; assay: cells; format: cell-based
INS-1E cells = assay: cells; format: cell-based, rat
NCI-H716 cells = assay: cells; format: cell-based, Human
HeLa cells = assay: cells; format: cell-based; conditions: Homo sapiens, HeLa, HeLa, read-out: CellCycle G2/M
DLD-1 = assay: cells; format: cell-based; conditions: Homo sapiens
SW480 = assay: cells; format: cell-based; conditions: Homo sapiens
HCT116 = assay: cells; format: cell-based; conditions: Homo sapiens
[3] = system: HCT116 cells treated with a GSK3β inhibitor; assay: cells; format: cell-based; conditions: Homo sapiens
Colo320 = assay: cells; format: cell-based; conditions: Homo sapiens
HT-29 = assay: cells; format: cell-based
RKO = assay: cells; format: cell-based
SNU-C1 = assay: cells; format: cell-based; conditions: Homo sapiens
hp70S6K1 (RPS6KB1) = biological target: T1, hp70S6K1 (RPS6KB1) (Homo sapiens, UniProt P23443); assay: Cerep LANCE kinase assay hp70S6K1 (S1 assay 31); format: biochemical; conditions: read-out: p70S6K1
T1 construct: purchased Cerep (LANCE kinase assay platform, contract assay)
T1 sequence (P23443 whole entry): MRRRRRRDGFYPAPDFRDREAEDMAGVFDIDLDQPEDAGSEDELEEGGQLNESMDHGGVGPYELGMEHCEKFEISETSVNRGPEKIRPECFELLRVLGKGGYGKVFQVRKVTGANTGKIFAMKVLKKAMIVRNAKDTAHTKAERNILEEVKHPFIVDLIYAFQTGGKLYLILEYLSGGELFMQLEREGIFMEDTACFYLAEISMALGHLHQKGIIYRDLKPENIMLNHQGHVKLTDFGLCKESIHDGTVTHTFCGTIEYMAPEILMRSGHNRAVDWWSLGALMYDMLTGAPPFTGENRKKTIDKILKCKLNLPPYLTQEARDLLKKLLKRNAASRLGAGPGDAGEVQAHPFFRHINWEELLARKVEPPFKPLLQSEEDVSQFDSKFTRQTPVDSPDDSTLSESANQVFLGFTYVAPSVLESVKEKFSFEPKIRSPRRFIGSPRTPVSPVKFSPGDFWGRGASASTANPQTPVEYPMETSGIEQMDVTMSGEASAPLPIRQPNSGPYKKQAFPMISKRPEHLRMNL

hKDR = biological target: T2, hKDR (Homo sapiens, UniProt P35968); assay: Cerep LANCE kinase assay hKDR (S1 assay 32); format: biochemical; conditions: read-out: KDR
T2 construct: purchased Cerep (LANCE kinase assay platform, contract assay)
T2 sequence (P35968 20-1356): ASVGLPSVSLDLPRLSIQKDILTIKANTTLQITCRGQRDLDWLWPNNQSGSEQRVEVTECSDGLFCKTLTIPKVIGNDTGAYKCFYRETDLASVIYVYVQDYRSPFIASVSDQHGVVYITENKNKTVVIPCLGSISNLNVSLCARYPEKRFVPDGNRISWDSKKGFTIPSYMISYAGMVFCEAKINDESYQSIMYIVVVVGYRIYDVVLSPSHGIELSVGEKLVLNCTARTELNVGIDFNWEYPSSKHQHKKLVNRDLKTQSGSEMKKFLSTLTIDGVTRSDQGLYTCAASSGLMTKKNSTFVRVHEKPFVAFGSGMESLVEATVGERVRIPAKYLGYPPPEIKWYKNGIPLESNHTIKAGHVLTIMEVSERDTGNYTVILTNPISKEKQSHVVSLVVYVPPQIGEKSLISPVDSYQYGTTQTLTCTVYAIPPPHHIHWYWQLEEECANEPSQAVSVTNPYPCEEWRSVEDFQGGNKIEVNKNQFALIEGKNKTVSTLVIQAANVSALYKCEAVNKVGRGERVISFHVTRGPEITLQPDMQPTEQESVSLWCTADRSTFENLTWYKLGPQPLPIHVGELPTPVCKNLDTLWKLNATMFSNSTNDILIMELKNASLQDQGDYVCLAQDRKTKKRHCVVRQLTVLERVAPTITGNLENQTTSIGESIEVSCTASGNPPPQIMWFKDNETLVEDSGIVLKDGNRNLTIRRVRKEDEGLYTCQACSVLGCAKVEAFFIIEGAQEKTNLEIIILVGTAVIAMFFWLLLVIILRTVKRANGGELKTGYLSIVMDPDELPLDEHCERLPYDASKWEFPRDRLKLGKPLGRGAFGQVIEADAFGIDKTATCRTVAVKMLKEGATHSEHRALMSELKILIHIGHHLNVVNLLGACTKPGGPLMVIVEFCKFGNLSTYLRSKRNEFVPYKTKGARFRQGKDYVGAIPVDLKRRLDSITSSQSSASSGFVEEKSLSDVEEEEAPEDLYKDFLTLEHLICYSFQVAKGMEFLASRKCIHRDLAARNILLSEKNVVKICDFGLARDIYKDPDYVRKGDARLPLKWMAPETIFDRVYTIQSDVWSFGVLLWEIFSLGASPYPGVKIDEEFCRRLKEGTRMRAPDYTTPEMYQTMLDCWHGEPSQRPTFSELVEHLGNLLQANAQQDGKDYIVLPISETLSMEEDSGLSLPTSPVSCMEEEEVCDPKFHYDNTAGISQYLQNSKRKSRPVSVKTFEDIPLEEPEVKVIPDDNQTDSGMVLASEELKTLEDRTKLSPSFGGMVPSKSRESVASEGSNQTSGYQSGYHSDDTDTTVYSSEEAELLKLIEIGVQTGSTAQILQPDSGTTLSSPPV

hJAK2 = biological target: T3, hJAK2 (Homo sapiens, UniProt O60674); assay: Cerep LANCE kinase assay hJAK2 (S1 assay 33); format: biochemical; conditions: read-out: JAK2
T3 construct: purchased Cerep (LANCE kinase assay platform, contract assay)
T3 sequence (O60674 whole entry): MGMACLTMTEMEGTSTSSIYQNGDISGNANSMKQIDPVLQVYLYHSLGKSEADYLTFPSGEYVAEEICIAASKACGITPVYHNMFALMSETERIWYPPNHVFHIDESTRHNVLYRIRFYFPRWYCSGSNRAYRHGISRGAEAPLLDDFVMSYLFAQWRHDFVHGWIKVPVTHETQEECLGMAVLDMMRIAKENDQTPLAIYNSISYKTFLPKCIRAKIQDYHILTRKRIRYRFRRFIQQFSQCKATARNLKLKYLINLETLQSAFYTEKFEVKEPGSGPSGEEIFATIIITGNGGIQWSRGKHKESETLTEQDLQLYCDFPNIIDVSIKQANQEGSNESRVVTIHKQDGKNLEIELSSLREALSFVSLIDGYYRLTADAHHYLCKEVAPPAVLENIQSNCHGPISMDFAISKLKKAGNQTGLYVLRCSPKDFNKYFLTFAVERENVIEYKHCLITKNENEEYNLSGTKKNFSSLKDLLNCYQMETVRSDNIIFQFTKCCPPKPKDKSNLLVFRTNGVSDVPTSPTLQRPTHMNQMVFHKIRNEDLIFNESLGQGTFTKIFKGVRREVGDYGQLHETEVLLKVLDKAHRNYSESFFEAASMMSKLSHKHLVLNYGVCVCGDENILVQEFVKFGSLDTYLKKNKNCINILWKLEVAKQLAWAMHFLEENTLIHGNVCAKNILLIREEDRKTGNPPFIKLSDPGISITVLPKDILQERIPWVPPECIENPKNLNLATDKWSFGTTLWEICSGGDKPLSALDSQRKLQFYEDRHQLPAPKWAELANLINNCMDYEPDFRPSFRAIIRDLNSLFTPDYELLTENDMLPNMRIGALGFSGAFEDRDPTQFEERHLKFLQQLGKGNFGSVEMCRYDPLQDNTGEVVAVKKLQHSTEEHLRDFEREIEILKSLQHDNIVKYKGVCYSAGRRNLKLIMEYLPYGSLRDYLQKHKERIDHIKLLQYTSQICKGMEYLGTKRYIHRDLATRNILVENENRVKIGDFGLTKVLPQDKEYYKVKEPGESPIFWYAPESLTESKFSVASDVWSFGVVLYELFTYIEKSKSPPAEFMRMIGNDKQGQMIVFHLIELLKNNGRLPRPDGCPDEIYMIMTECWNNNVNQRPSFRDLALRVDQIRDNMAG

hGSK3b = biological target: T4, hGSK3b (Homo sapiens, UniProt P49841); assay: Cerep LANCE kinase assay hGSK3b (S1 assay 34); format: biochemical; conditions: read-out: GSK3b
T4 construct: purchased Cerep (LANCE kinase assay platform, contract assay)
T4 sequence (P49841 whole entry): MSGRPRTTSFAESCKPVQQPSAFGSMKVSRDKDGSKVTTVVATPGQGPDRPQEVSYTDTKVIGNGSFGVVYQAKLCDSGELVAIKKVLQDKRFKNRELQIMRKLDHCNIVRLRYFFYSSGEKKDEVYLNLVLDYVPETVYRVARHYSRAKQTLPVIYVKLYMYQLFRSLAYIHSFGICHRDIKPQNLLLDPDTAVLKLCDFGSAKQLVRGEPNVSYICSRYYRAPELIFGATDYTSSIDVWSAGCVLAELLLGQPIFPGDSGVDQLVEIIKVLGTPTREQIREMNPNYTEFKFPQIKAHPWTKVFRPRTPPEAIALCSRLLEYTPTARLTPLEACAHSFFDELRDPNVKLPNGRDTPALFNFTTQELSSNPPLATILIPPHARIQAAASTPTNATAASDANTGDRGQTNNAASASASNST

hFLT3 = biological target: T5, hFLT3 (Homo sapiens, UniProt P36888); assay: Cerep LANCE kinase assay hFLT3 (S1 assay 35); format: biochemical; conditions: read-out: FLT3
T5 construct: purchased Cerep (LANCE kinase assay platform, contract assay)
T5 sequence (P36888 27-993): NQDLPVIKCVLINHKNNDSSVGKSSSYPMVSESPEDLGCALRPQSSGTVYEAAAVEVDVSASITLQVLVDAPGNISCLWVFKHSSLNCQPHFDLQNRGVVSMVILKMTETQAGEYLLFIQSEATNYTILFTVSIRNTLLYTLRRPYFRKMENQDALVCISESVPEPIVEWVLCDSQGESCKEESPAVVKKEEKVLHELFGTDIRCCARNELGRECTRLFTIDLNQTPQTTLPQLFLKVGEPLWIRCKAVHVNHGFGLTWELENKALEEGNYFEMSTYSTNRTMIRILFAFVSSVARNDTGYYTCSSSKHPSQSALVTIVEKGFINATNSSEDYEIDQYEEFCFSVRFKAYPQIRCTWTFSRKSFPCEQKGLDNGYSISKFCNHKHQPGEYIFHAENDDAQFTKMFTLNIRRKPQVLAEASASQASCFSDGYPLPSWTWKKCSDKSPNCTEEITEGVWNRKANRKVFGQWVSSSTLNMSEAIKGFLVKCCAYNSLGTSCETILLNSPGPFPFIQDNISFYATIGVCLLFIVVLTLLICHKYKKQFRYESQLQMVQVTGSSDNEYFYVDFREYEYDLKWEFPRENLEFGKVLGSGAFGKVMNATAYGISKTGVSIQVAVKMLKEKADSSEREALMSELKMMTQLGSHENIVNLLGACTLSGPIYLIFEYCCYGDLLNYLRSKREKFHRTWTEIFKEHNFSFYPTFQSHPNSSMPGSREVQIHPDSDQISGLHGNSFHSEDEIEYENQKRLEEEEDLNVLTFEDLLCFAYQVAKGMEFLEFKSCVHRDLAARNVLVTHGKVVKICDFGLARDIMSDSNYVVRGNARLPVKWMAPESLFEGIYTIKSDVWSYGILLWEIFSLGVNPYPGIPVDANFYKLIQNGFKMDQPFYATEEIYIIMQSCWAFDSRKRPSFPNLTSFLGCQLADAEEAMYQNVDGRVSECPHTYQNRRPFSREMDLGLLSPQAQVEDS

[4] = COLO 320, read-out: Basal_Viability ATP Colo 320
[5] = Homo sapiens, read-out: Anti-Angiogenesis
[6] = Mus musculus, C2C12, read-out: Wnt Pathway
[7] = Rattus norvegicus, INS-1E, read-out: Insulin Secretion
[8] = Homo sapiens, NCI-H716, read-out: GLP 1 Secretion
[9] = DLD-1, read-out: Basal_Viability ATP DLD-1
[10] = SW480, read-out: Basal_Viability ATP SW480
[11] = HCT-116, read-out: Basal_Viability ATP HCT116
[12] = HCT-116, read-out: GSK3b inh pretreated_Viability ATP HCT116
[13] = Homo sapiens, HT-29, read-out: Basal_Viability ATP HT-29
[14] = Homo sapiens, RKO, read-out: Basal_Viability ATP RKO
[15] = SNU-C1, read-out: Basal_Viability ATP SNU-C1

SMILES | IC50 (Colo320; [4]) | IC50 [1, 5] | EC50 [2, 6] | EC50 (INS-1E cells; [7]) | EC50 (NCI-H716 cells; [8]) | EC50 (HeLa cells) | IC50 (DLD-1; [9]) | IC50 (SW480; [10]) | IC50 (HCT116; [11]) | IC50 [3, 12] | IC50 (HT-29; [13]) | IC50 (RKO; [14]) | IC50 (SNU-C1; [15]) | IC50 (hp70S6K1 (RPS6KB1); kinase assay) | IC50 (hKDR; kinase assay) | IC50 (hJAK2; kinase assay) | IC50 (hGSK3b; kinase assay) | IC50 (hFLT3; kinase assay) | further results
COc1cccc2c1C(=O)c1c(O)c3c(c(O)c1C2=O)C[C@@](O)(C(C)=O)C[C@@H]3O[C@H]1C[C@H](N)[C@H](O)[C@H](C)O1 [Daunorubicin] | 9250 nM | – | – | – | – | – | – | – | – | – | – | – | – | – | – | – | – | – | IC50 ([1]; Homo sapiens, IC50 / EC50; endothelial tube area, ADSC/ECFC co-culture; read-out: Anti-Angiogenesis): > 10000 nM; EC50 ([2]; Mus musculus, C2C12, IC50 / EC50; C2C12 beta-catenin translocation; read-out: Wnt Pathway): 6.1 nM; EC50 (INS-1E cells; Rattus norvegicus; IC50 / EC50; INS-1E; read-out: Insulin Secretion): > 10000 nM; EC50 (NCI-H716 cells; Homo sapiens; IC50 / EC50; NCI-H716; read-out: GLP 1 Secretion): > 10000 nM; EC50 (HeLa cells; IC50 / EC50): 46.5 nM; IC50 (DLD-1; DLD-1, basal, read-out: Basal_Viability ATP DLD-1): 188 nM; IC50 (SW480; SW480, basal, read-out: Basal_Viability ATP SW480): 1470 nM; IC50 (HCT116; HCT-116, basal, read-out: Basal_Viability ATP HCT116): 50.9 nM; IC50 ([3]; HCT-116, GSK3b inhibitor pretreated, read-out: GSK3b inh pretreated_Viability ATP HCT116): 55.4 nM; IC50 (HT-29; Homo sapiens, HT-29; read-out: Basal_Viability ATP HT-29): 648 nM; IC50 (RKO; Homo sapiens, RKO; read-out: Basal_Viability ATP RKO): 118 nM; IC50 (SNU-C1; SNU-C1, basal, read-out: Basal_Viability ATP SNU-C1): 338 nM; IC50 (hp70S6K1 (RPS6KB1)): > 20000 nM; IC50 (hKDR): > 20000 nM; IC50 (hJAK2): > 20000 nM; IC50 (hGSK3b): > 20000 nM; IC50 (hFLT3): > 20000 nM
Oc1c(I)cc(I)c2cccnc12 [Diiodohydroxyquinoline] | 21.3 nM | 2390 nM | > 10000 nM | > 10000 nM | > 10000 nM | > 10000 nM | 17.8 nM | 3.6 nM | 41 nM | 66.7 nM | 705 nM | 22.7 nM | 38.7 nM | > 20000 nM | > 20000 nM | > 20000 nM | > 20000 nM | > 20000 nM | –
O=c1c(-c2ccccc2)c1-c1ccccc1 [Diphenylcyclopropenone] | 3100 nM | 3840 nM | 3620 nM | > 10000 nM | > 10000 nM | > 10000 nM | 4210 nM | > 20000 nM | > 20000 nM | 7710 nM | > 20000 nM | > 20000 nM | > 20000 nM | > 20000 nM | > 20000 nM | > 20000 nM | > 20000 nM | > 20000 nM | –
COC(=O)Nc1nc2ccc(Sc3ccccc3)cc2[nH]1 [Fenbendazole] | – | – | – | – | – | – | – | – | – | – | – | – | – | > 20000 nM | > 20000 nM | > 20000 nM | > 20000 nM | > 20000 nM | IC50 ([1]; Homo sapiens; read-out: Anti-Angiogenesis): 207 nM; EC50 ([2]; Mus musculus, C2C12; read-out: Wnt Pathway): 438 nM; EC50 (INS-1E cells; Rattus norvegicus, INS-1E; read-out: Insulin Secretion): > 10000 nM; EC50 (NCI-H716 cells; Homo sapiens, NCI-H716; read-out: GLP 1 Secretion): > 20000 nM; EC50 (HeLa cells; S2 Table, 20 = no response at highest concentration): 195 nM; IC50 (DLD-1; DLD-1, basal, DLD-1, read-out: Basal_Viability ATP DLD-1): 67.3 nM; IC50 (SW480; SW480, basal, SW480, read-out: Basal_Viability ATP SW480): > 20000 nM; IC50 (HCT116; HCT-116, basal, HCT116, read-out: Basal_Viability ATP HCT116): 1 nM; IC50 ([3]; HCT-116, HCT116 pretreated with GSK3b inhibitor, read-out: GSK3b inh pretreated_Viability ATP HCT116): 3 nM; IC50 (Colo320; basal, Colo 320, read-out: Basal_Viability ATP Colo 320): > 20000 nM; IC50 (HT-29; Homo sapiens; basal; HT-29; read-out: Basal_Viability ATP HT-29): > 20000 nM; IC50 (RKO; Homo sapiens; basal; RKO; read-out: Basal_Viability ATP RKO): 1 nM; IC50 (SNU-C1; SNU-C1, basal, SNU-C1, read-out: Basal_Viability ATP SNU-C1): > 20000 nM
O=c1[nH]c(=O)n([C@H]2C[C@H](O)[C@@H](CO)O2)cc1F [Floxuridine] | > 20000 nM | 21.6 nM | > 10000 nM | > 10000 nM | > 10000 nM | > 10000 nM | 1 nM | > 20000 nM | 1 nM | 1 nM | > 20000 nM | 1 nM | > 20000 nM | > 20000 nM | > 20000 nM | > 20000 nM | > 20000 nM | > 20000 nM | –
Cc1cc(O)c2c3c4c(cc(O)c13)C(C)(C)C(=O)c1c(O)cc(O)c(c1-4)C2=O [Heliomycin] | 82 nM | 100 nM | 1070 nM | > 10000 nM | > 10000 nM | > 10000 nM | 70.9 nM | 58 nM | 77.5 nM | 57.3 nM | 3010 nM | 75.4 nM | 332 nM | > 20000 nM | > 20000 nM | > 20000 nM | 6900 nM | 1970 nM | –
Sc1ncnc2nc[nH]c12 [Mercaptopurine] | 1300 nM | 915 nM | > 10000 nM | > 10000 nM | > 10000 nM | > 10000 nM | 260 nM | 1040 nM | 259 nM | 1420 nM | 635 nM | 659 nM | > 20000 nM | > 20000 nM | > 20000 nM | > 20000 nM | > 20000 nM | > 20000 nM | –
COc1c(C)c2c(c(O)c1C/C=C(\C)CCC(=O)O)C(=O)OC2 [Mycophenolate] | 1 nM | 1260 nM | > 10000 nM | > 10000 nM | > 10000 nM | > 10000 nM | > 20000 nM | 2600 nM | 67.2 nM | 49.8 nM | > 20000 nM | 165 nM | > 20000 nM | > 20000 nM | > 20000 nM | > 20000 nM | > 20000 nM | > 20000 nM | –
